Data on three molecules can be found in patent US10070648B2, “Photodynamic insecticides” (ROSALIND FRANKLIN UNIVERSITY OF MEDICINE AND SCIENCE, priority 2016, dated 2018).

pEC50: −log10 of the molar value. Where two headings read alike, the source gives them in different places.

One data set has as its system Aedes mosquito larvae. Description: PDI assay of light-activated larvicidal activity (larva mobility). The class given is in vivo, A. aegypti and A. albopictus. Particulars: for 2nd instar larvicidal activity (larva immobilization, % of dark control) compared with positive controls RB and CY: 1/1000 dilution of stock, white light up to 7 hours; for pEC50: 2nd instar larvae, estimated from concentration vs. larvicidal activity curve, 16 hours PS exposure in dark, then white light, read-out: EC50 for PDT-mediated 2nd-instar larvicidal activities. The text has this:
2nd to 4th instar larvae of A. aegypti and A. albopictus (or Aedes mosquitoes in brief) were used in the experiments, as they are known vectors of Zika fever and other viral diseases. Colonies of both species were reared to provide the larvae of all instars under the approved conditions of a humidified “warm room” (˜28 C, ˜80% relative humidity).
The PDI assay to determine the larvicidal activities of the PS in Table 1 was based on procedures developed for mammalian and protozoa cells with modifications for mosquito larvae. Briefly, each PS was tested in 3-4 concentrations in 10-fold serial dilutions, starting with a 1/100 dilution of the stock solution (see Table 1 for the PS stock concentrations) as the highest. The solvent (DMSO) at these PS concentrations was ≤1%, which was pre-tested alone and shown to have no larvicidal activity. Larvae were PS-exposed (and not exposed as a control) in groups of 20 per 5 mL of water per well of a 6-well plate, in duplicate. All plates were foil-wrapped for overnight incubation under dark conditions in the “warm room.” After 16 hours of PS exposure, one of the duplicate 6-well plates was un-wrapped and the lid removed for exposure from the top with white light from a fluorescent tube-containing box (1-2 J/cm^2). The remaining 6-well plate of the duplicate was exposed under exactly the same conditions, but remained foil-wrapped as the dark control. Larvae were checked for mobility and readings recorded hourly for up to 7 hours. […] Each condition was repeated 4-5 times in independent experiments.

The test system of data set [1] is Aedes albopictus clone C6/36 (ATCC CRL-1660). Description: Uptake of PS by mosquito cells in vitro and photo-inactivation. Particulars: for state of sensitized cells after light exposure: white light, 4 hrs. The procedure:
The insect cells were exposed to both dyes overnight and illuminated with white light under conditions similar to those described for mammalian and Leishmania cells. Images were captured first under differential interference (DIF) [A] and then under the filter sets for DAPI and Texas red [B]. [C] Chemical structure of cyanosione and rose Bengal.
Uptake of PS was assessed in insect cells, specifically Aedes albopictus clone C6/36 (ATCC CRL-1660). The insect cells were exposed to both dyes overnight and illuminated with white light under conditions similar to those described for mammalian and Leishmania cells. […] Images were captured first under differential interference (DIF) [A] and then under the filter sets for DAPI and Texas red [B]. [C] Chemical structure of cyanosione and rose Bengal.

For data set [2], the system named is Culex pipiens quinquefasciatus 4th instar larvae. Description: Uptake and photo-inactivation in mosquito larvae kept in dye-containing water. Format: in vivo. The procedure: Panel [A]: Culex pipiens quinquefasciatus 4th instar larvae exposed to rose Bengal (10 μg/mL) (˜20 larvae/5 mL water/well in 6-well plate) in dark for ˜24 hours followed by exposure to white light for ˜6 hrs at ˜2500 lux. Panels [B] and [C]: Phlebotomus duboscqi female (B) and male (C) adult flies (˜20 flies/screened paper cup) fed with 5% sucrose solution and 500 μL of 5 mg/mL rose bengal in a cotton ball for ˜20 hrs in the dark followed by exposure to ˜2500 lux of white light for 3 hrs. Duplicate samples were prepared and kept in the dark as controls. Rose bengal was taken up by the mosquito larvae and sand flies of both sexes.
Culex pipiens quinquefasciatus 4th instar larvae were exposed to rose Bengal or cyanosine (10 μg/mL) (˜20 larvae/5 mL water/well in 6-well plate) in the dark for ˜24 hours followed by exposure to white light for ˜6 hrs at ˜2500 lux; Phlebotomus duboscqi female (FIG. 1, panel B) and male (FIG. 1, panel C) adult flies (˜20 flies/screened paper cup) fed with 5% sucrose solution and 500 μL of 5 mg/ml rose bengal in a cotton ball for ˜20 hrs in the dark followed by exposure to ˜2500 lux of white light for 3 hrs. Duplicate samples were prepared and kept in the dark as controls.
The susceptibility of PS-sensitized insects to white light illumination varied with the species and the PSs used. […]

Where [3] appears, read: 1/10000 dilution of the stocks, light-activated.

What is called pEC50 is the EC50 on a negative log10 scale, so that one unit is a factor of ten. “Meso-tetra(4- n,n,n- trimethylanili- nium) porphine tetrachloride [TMAP]”: in the data set on Aedes mosquito larvae, the “2nd instar larvicidal activity (larva immobilization, % of dark control) compared with positive controls RB and CY” value is “most similar to RB”; the pEC50 is 7.00. Also, the “effect on the other instars (3rd, 4th)” value in the data set on Aedes mosquito larvae (setting [3]) is “unscathed”.

Turning to `O=C([O-])c1c(Cl)c(Cl)c(Cl)c(Cl)c1-c1c2cc(I)c(=O)c(I)c-2oc2c(I)c([O-])c(I)cc12.[Na+].[Na+]` [Rose Bengal], the “viability of 2nd to 4th instar larvae” value in the data set with Aedes mosquito larvae (setting [3]) was “reduced the viability of all instars to a variable extent”. In the data set on Aedes mosquito larvae (Aedes), the pEC50 was 6.60. Further, the “state of sensitized cells kept in the dark” value in data set [1] (dark) is “remained adherent and intact”. The results for the “state of sensitized cells after light exposure” value in data set [1] and in data set [1] (listed as RB) were “cellular disintegration” and “became disintegrated”, respectively. For the same molecule, in data set [2] (10 μg/mL, dark ~24 hours, then white light ~6 hrs at ~2500 lux), the “phototoxicity to mosquito larvae” value is given as “especially evident”. Moreover, in data set [2] (motility as viability readout), the “difference of sensitized larvae between dark and light conditions” value is “significant”.

Turning to “Meso- Tetraphenylpor- phine disulphonic acid dihydrochoride [TPPS2]”, the “2nd instar larvicidal activity (larva immobilization, % of dark control) compared with positive controls RB and CY” value with Aedes mosquito larvae is “most similar to RB”. Moreover, in the data set with Aedes mosquito larvae (setting [3]), the “effect on the other instars (3rd, 4th)” value was “unscathed”.
